Reference: PubChem BioAssay AID2060487 (Molecular Pharmacology Branch, DTP, NCI, 2025)
Values joined by “and” are separate entries in the source; they are usually repeats but may differ in a detail not shown here. Equal values may be shown once.

Tested on: 997537-175-T-J1-PDC complex spheroid viability
Assay: Anticancer human tumor 997537-175-T-J1-PDC patient-derived colon adenocarcinoma cell line growth inhibition [GQUAD]
Details: for viability, T/C: stronger effect = lower value
Excerpt: DNA G-quadruplex Stabilizer Agents in Combinations in Complex Spheroids
A high-throughput screen of multi-cell type tumor spheroids was designed to identify active combinations of DNA G-quadruplex stabilizer agents and targeted small molecules. Complex spheroids include a stromal component modeled by human endothelial cells (HUVEC) and fibroblasts modeled by human mesenchymal stem cells (MSCs). The concentration ranges selected for each drug and investigational agent were based upon clinically achievable concentrations if the clinical Cmax of the agent was known.
Compounds. The drugs and investigational agents: pidnarulex (CX-5461; NSC782164), APTO-253 (NSC789042), BRACO-19 (NSC847499), peposertib (NSC802822), ceralasertib (NSC780249), elimusertib (NSC800525), camonsertib (NSC841442), AZD-1390 (NSC803789), olaparib (NSC753686), talazoparib (NSC767125), ART-558 (NSC835418), sotorasib (NSC818433), MRTX-1133 (NSC836407), SN-38 (NSC673596), topotecan (NSC609699), etoposide (NSC141540), doxorubicin (NSC123127), gemcitabine (NSC613327), 5-fluorouracil (NSC19893), paclitaxel (NSC125973), vemurafenib (NSC761431), panobinostat (NSC761190), R-306465 (JNJ-16241199; NSC773264), adavosertib (NSC754352), TP-3654 (NSC805149), carboplatin (NSC241240), KSQ-4279 (NSC840948), and staurosporine (NSC755774) were obtained from the National Cancer Institute (NCI) Developmental Therapeutics Program Chemical Repository (34). The FDA-approved anticancer drug set is available from the NCI Developmental Therapeutics Program. […] The stock solutions were prepared in dimethyl sulfoxide (DMSO, Sigma-Aldrich, St. Louis, MO, cat. D2650) at 800-fold the tested concentration and stored at -70 degrees C prior to their use. All drugs and investigational agents were tested over a range starting from a high concentration at or near the clinical Cmax and decreasing in half-log increments. If the clinical Cmax for an agent had not been determined, the highest concentration tested was 10 microM.
2.3 Cell Culture. All cells were maintained in an incubator at 37 degrees C and 5% CO2 with 95% humidity. The PDC lines were cultured according to standard operating procedures established by the NCI PDMR. All PDCs were thawed and cultured in Matrigel-coated flasks prepared with a working solution of 1X Ham's F-12 nutrient mix, without supplementation (Invitrogen, cat. 11765054), 100 U/mL penicillin-streptomycin (Invitrogen, cat. 15140122), and 2.5% Matrigel (Corning Inc., cat. 354248) for the first three passages. The 857933-349-R-J2-PDC line was cultured in 6C/Colon 1B media, which includes advanced DMEM/F-12 (Thermo Fisher Scientific, cat. 12634028), 10 mM HEPES (Thermo Fisher Scientific, cat. 15630080), 1X GlutaMAX supplement (Thermo Fisher Scientific, cat. 35050061), 0.1 mg/mL primocin (InvivoGen, cat. ant-pm-2), 10% defined fetal bovine serum, heat inactivated (HyClone Laboratories Inc., cat. SH30070.03HI), 50% L-WRN conditioned media (ATCC, cat. CRL-3276), 1.25 mM N-Acetyl-L-cysteine (Sigma-Aldrich, cat. A9165), 10 mM nicotinamide (Sigma-Aldrich, cat. N0636), 1X B-27 supplement (Thermo Fisher Scientific, cat. 17504044), 1X N-2 supplement (Thermo Fisher Scientific, cat. 17502048), 10 microM Y-27632 dihydrochloride (Tocris Bioscience, cat. 1254), and 50 ng/mL human EGF recombinant protein (Thermo Fisher Scientific, cat. PHG0311). The 485176-168-R4-J1-PDC line was cultured in Panc media, which includes all 6C/Colon 1B media components plus 100 ng/mL human FGF-10 (Thermo Fisher Scientific, cat. 100-26), 500 nM SB-431542 (Selleckchem, cat. S1067), and gastrin (Tocris, cat. 3006).
[…]

[1] = compound alone, run of 04/22/2024
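Further: spheroids exposed to the agents for 7 days.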
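Wherever viability, T/C is given: 100% = DMSO vehicle control viability.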

CC(=O)O[C@H]1C(=O)[C@@]2(C)[C@H]([C@H](OC(=O)c3ccccc3)[C@]3(O)C[C@H](OC(=O)[C@H](O)[C@@H](NC(=O)c4ccccc4)c4ccccc4)C(C)=C1C3(C)C)[C@]1(OC(C)=O)CO[C@@H]1C[C@@H]2O
viability, T/C (compound 0.0316 µM): 104% and 77.3% and 50.1% | viability, T/C (compound 0.1 µM): 92.5% and 40.4% and 45.4% | viability, T/C (compound 0.316 µM): 91.8% and 22.7% and 36.3% | viability, T/C (compound 1 µM): 74.7% and 34.4% and 39.1% | viability, T/C (compound 3.16 µM): 53.2% and 23.9% and 28.3% | viability, T/C (compound 10 µM): 0.36% and 20.5% and 22%

COc1ncnc(C2CC2)c1-c1ncc2cnn(Cc3ccc(-c4nc(C(F)(F)F)cn4C(C)C)cc3)c2n1
viability, T/C (compound 0.0316 µM): 108% and 102% and 88.2% | viability, T/C (compound 0.1 µM): 74.8% and 112% and 95% | viability, T/C (compound 0.316 µM): 108% and 90.8% and 83.2% | viability, T/C (compound 1 µM): 75.4% and 97.9% and 84.9% | viability, T/C (compound 3.16 µM): 82.6% and 103% and 75.4% | viability, T/C (compound 10 µM): 80.2% and 58% and 77.7% | IC50 (curve of compound): > 10 µM

Cc1[nH]c2ccc(F)cc2c1-c1nc2c3cccnc3c3ncccc3c2[nH]1
viability, T/C (compound 0.1 µM): 95.2% [middle of 12 runs] | viability, T/C (compound 0.316 µM): 98.8% [middle of 12 runs] | viability, T/C (compound 3.16 µM): 89.3% [middle of 12 runs] | IC50 (compound alone, run of 04/16/2024): > 10 µM | IC50 [1]: > 10 µM

Cc1cccc(N(C)C(=O)C2C(O)CCN2c2nc(C)cc(C(F)(F)F)c2C#N)c1 (configuration not stated) + Cc1cnc(CNC(=O)c2c(=O)c3ccc(N4CCCN(C)CC4)nc3n3c2sc2ccccc23)cn1
IC50 (curve of first compound, second compound 0.0316 µM): > 10 µM | IC50 (curve of first compound, second compound 0.1 µM): > 10 µM | IC50 (curve of first compound, second compound 0.316 µM): > 10 µM | IC50 (curve of first compound, second compound 1 µM): > 10 µM | IC50 (curve of first compound, second compound 3.16 µM): > 10 µM | IC50 (curve of first compound, second compound 10 µM): > 10 µM | viability, T/C (second compound 0.0316 µM, first compound 0.0316 µM): 82.4% | viability, T/C (second compound 0.0316 µM, first compound 0.1 µM): 80.5% | viability, T/C (second compound 0.0316 µM, first compound 0.316 µM): 89.2% | viability, T/C (second compound 0.0316 µM, first compound 1 µM): 97.2% | viability, T/C (second compound 0.0316 µM, first compound 3.16 µM): 82.3% | viability, T/C (second compound 0.0316 µM, first compound 10 µM): 98.5% | viability, T/C (second compound 0.1 µM, first compound 0.0316 µM): 102% | viability, T/C (second compound 0.1 µM, first compound 0.1 µM): 94.2% | viability, T/C (second compound 0.1 µM, first compound 0.316 µM): 94.2% | viability, T/C (second compound 0.1 µM, first compound 1 µM): 67% | viability, T/C (second compound 0.1 µM, first compound 3.16 µM): 88.6% | viability, T/C (second compound 0.1 µM, first compound 10 µM): 92.4% | viability, T/C (second compound 0.316 µM, first compound 0.0316 µM): 93.7% | viability, T/C (second compound 0.316 µM, first compound 0.1 µM): 75.2% | viability, T/C (second compound 0.316 µM, first compound 0.316 µM): 99.5% | viability, T/C (second compound 0.316 µM, first compound 1 µM): 73.8% | viability, T/C (second compound 0.316 µM, first compound 3.16 µM): 112% | viability, T/C (second compound 0.316 µM, first compound 10 µM): 84.3% | viability, T/C (second compound 1 µM, first compound 0.0316 µM): 94.6% | viability, T/C (second compound 1 µM, first compound 0.1 µM): 98.5% | viability, T/C (second compound 1 µM, first compound 0.316 µM): 87.8% | viability, T/C (second compound 1 µM, first compound 1 µM): 88.4% | viability, T/C (second compound 1 µM, first compound 3.16 µM): 106% | viability, T/C (second compound 1 µM, first compound 10 µM): 99.7% | viability, T/C (second compound 3.16 µM, first compound 0.0316 µM): 77.3% | viability, T/C (second compound 3.16 µM, first compound 0.1 µM): 103% | viability, T/C (second compound 3.16 µM, first compound 0.316 µM): 96% | viability, T/C (second compound 3.16 µM, first compound 1 µM): 93.4% | viability, T/C (second compound 3.16 µM, first compound 3.16 µM): 107% | viability, T/C (second compound 3.16 µM, first compound 10 µM): 87.7% | viability, T/C (second compound 10 µM, first compound 0.0316 µM): 85.1% | viability, T/C (second compound 10 µM, first compound 0.1 µM): 114% | viability, T/C (second compound 10 µM, first compound 0.316 µM): 98.3% | viability, T/C (second compound 10 µM, first compound 1 µM): 95% | viability, T/C (second compound 10 µM, first compound 3.16 µM): 96.9% | viability, T/C (second compound 10 µM, first compound 10 µM): 86.7%

CN(C)c1ccc(Nc2c3ccc(NC(=O)CCN4CCCC4)cc3nc3cc(NC(=O)CCN4CCCC4)ccc23)cc1
viability, T/C (compound 0.316 µM): 97.1% [middle of 12 runs] | IC50 [1]: > 10 µM
